Source: patent US12544375B2, “Small molecule therapeutic for parkinson's disease paired with a biomarker of therapeutic activity” (The Board of Trustees of the Leland Stanford Junior …, priority 2019, dated 2026)

Test system: iPSC-derived neurons
Assay: Mitochondrial motility and clearance in axons of iPSC-derived neurons, live imaging
Assay type: cell-based, human
Conditions: 5 μM for 24 hrs
Method: FIG. 3A-FIG. 3D. Miro1 Reducer Rescues Parkinson's Neurodegeneration. (FIG. 3A) Fibroblasts were treated, lysed, and blotted as indicated. Band intensities are normalized to those of ATP5β from the same blots and compared to “Healthy-2, no treatment”. n=4. (FIG. 3B-FIG. 3C) iPSC-derived neurons were treated as indicated and immunostained with anti-TH (FIG. 3B) or stained with PI and Dapi (FIG. 3C). Both Antimycin A and Miro1 Reducer were dissolved in ethanol. Neurons were pretreated with Miro1 Reducer 24 hrs before the application of Antimycin A for another 6 hrs. The same volume of ethanol was applied at the same time in negative controls. (FIG. 3B) The density of TH-positive neurons is calculated in each condition under 20×, from 10 fields each experiment, 3-4 experiments. […] (FIG. 3C) The percentage of PI-positive cells out of total cells (Dapi-positive) is calculated. n=20 fields each experiment, 4 experiments. […] Graphs of Mean±S.E.M show the percent of time each mitochondrion is in motion (red and blue, compared to “Wild-type-I, before treatment”), and the mitochondrial intensity normalized to that of the same axonal region at “0 min” and expressed as a fraction of the mean of “Wild-type-I, 0 min”. n=33-77 mitochondria from 5-8 axons from 5-8 separate transfections. […]
Live Image Acquisition and Quantification. […]

O=C(Nc1ccc(Nc2cc(-n3ccnc3)ncn2)cc1)Nc1cccc(F)c1 [Miro1 Reducer]
basal motility of polarized, healthy mitochondria: did not affect | delayed arrest and clearance of depolarized mitochondria (then 100 μM Antimycin A, PD patient neurons): rescued the delayed arrest and clearance of depolarized mitochondria
